According to patent US8748426B2, “Inhibitors of diacylglycerol acyl transferase” (Piramal Enterprises Limited, priority 2009, dated 2014):

Each compound was assayed against T1, hDGAT1 (Homo sapiens, UniProt O75907) (assay: In-vitro DGAT1 assay (14C oleoyl CoA, hDGAT1 microsomes from Sf9 cells)). Settings: at 1 μM.
T1 sequence (O75907 1-488): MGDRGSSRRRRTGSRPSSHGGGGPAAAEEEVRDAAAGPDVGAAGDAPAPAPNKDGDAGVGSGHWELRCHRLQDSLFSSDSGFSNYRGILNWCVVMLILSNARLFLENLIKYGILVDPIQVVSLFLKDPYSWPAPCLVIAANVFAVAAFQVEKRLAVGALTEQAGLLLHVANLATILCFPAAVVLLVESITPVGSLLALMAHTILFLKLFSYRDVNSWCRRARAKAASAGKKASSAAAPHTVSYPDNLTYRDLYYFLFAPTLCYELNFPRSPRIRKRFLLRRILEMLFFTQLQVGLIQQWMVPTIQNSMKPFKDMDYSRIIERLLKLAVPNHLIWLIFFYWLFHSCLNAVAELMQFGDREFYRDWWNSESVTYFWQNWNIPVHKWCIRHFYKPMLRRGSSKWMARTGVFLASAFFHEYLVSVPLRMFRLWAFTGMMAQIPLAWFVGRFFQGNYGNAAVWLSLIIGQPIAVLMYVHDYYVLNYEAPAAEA

| % Inhibition of hDGAT1 | Compound |
| --- | --- |
| + (10-50% Inhibition) | COC[C@@H](C(=O)O)N1Cc2ccc(-c3ccc(NC(=O)Nc4cccc(C(F)(F)F)c4)cc3)cc2C1=O [Example 355] |
| + (10-50% Inhibition) | CC(C)[C@@H](C(=O)O)N1Cc2cc(-c3ccc(NC(=S)Nc4ccc(C#N)cc4)cc3)ccc2C1=O [Example 269, (S)-2-(5-(4-(3-(4-Cyanophenyl)thioureido)phenyl)-1-oxoisoindolin-2-1)-3-methyl butanoic acid] |

| Compound | % Inhibition of hDGAT1 |
| --- | --- |
| CC(C)(C(=O)O)N1Cc2ccc(-c3ccc(NC(=O)c4ccc(-c5ccccc5)cc4)cc3)cc2C1=O [Example 517, 2-(6-(4-([1,1′-Biphenyl]-4-ylcarboxamido)phenyl)-1-oxoisoindolin-2-yl)-2-methyl propanoic acid] | ++ (>50% Inhibition) |

Same assay, conditions: read-out: % Inhibition of hDGAT1

| inhibition at 1 µM [%] | Compound |
| --- | --- |
| > 50 | Cc1oc(-c2ccccc2)nc1C(=O)Nc1ccc(-c2ccc3c(c2)C(=O)N([C@H](C(=O)O)C(C)C)C3)cc1 [Example 643, (S)-3-Methyl-2-(6-(4-(5-methyl-2-phenyloxazole-4-carboxamido)phenyl)-1-oxoisoindolin-2-yl)butanoic acid] |
| 10 to 50 | COC[C@@H](C(=O)O)N1Cc2cc(-c3ccc(NC(=O)Nc4cccc(C(F)(F)F)c4)cc3)ccc2C1=O [Example 385, (S)-3-Methoxy-2-(1-oxo-5-(4-(3-(3-(trifluoromethyl)phenyl)ureido)phenyl)isoindolin-2-yl)propanoic acid] |
| 10 to 50 | CC(C)[C@@H](C(=O)O)N1Cc2ccc(-c3ccc(NC(=S)Nc4cccc(F)c4)cc3)cc2C1=O [Example 56, (S)-2-(6-(4-(3-(3-Fluorophenyl)thioureido)phenyl)-1-oxoisoindolin-2-yl)-3-methylbutanoic acid] |
| 10 to 50 | CCCCCc1ccc(C(=O)Nc2ccc(-c3ccc4c(c3)C(=O)N([C@H](C(=O)O)C(C)C)C4)c(OC)c2)cc1 [Example 462, (S)-2-(6-(2-Methoxy-4-(4-pentylbenzamido)phenyl)-1-oxoisoindolin-2-yl)-3-methylbutanoic acid] |
| > 50 | CC(C)[C@@H](C(=O)O)N1Cc2ccc(-c3ccc(NC(=O)c4cc(-c5ccc(Cl)cc5)no4)cc3)cc2C1=O [Example 618, (S)-2-(6-(4-(3-(4-Chlorophenyl)isoxazole-5-carboxamido)phenyl)-1-oxoisoindolin-2-yl)-3-methylbutanoic acid] |
| > 50 | CC(C)[C@@H](C(=O)O)N1Cc2ccc(-c3ccc(NC(=O)c4cc(-c5ccc(F)cc5)no4)cc3)cc2C1=O [Example 616, (S)-2-(6-(4-(3-(4-Fluorophenyl)isoxazole-5-carboxamido)phenyl)-1-oxoisoindolin-2-yl)-3-methylbutanoic acid] |
| 10 to 50 | CC(C)[C@@H](C(=O)O)N1Cc2cc(-c3ccc(NC(=O)Nc4ccccc4)cc3)ccc2C1=O [Example 231, (S)-3-Methyl-2-(1-oxo-5-(4-(3-phenylureido)phenyl)isoindolin-2-yl)butanoic acid] |
| > 50 | CC(C)[C@@H](C(=O)O)N1Cc2ccc(-c3ccc(NC(=O)c4ccc(C(C)(C)C)cc4)nn3)cc2C1=O [Example 498, (S)-2-(6-(6-(4-tert-Butylbenzamido)pyridazin-3-yl)-1-oxoisoindolin-2-yl)-3-methylbutanoic acid] |
| > 50 | CC(C)[C@@H](C(=O)O)N1Cc2ccc(-c3ccc(NC(=O)Nc4cccc(C#N)c4)cc3)cc2C1=O [Example 42, (S)-2-(6-(4-(3-(3-Cyanophenyl)ureido)phenyl)-1-oxoisoindolin-2-yl)-3-methyl butanoic acid] |
| > 50 | CC(C)[C@@H](C(=O)O)N1Cc2ccc(-c3ccc(NC(=O)c4ccc(C(C)(C)C)cc4)cc3F)cc2C1=O [Example 604, (S)-2-(6-(4-(4-(tert-Butyl)benzamido)-2-fluorophenyl)-1-oxoisoindolin-2-yl)-3-methylbutanoic acid] |
| 10 to 50 | Cc1ccc(NC(=S)Nc2ccc(-c3ccc4c(c3)C(=O)N([C@H](C(=O)O)C(C)C)C4)cc2)cc1 [Example 54, (S)-3-Methyl-2-(1-oxo-6-(4-(3-p-tolylthioureido)phenyl)isoindolin-2-yl)butanoic acid] |
| 10 to 50 | CC(C)[C@@H](C(=O)O)N1Cc2cc(-c3ccc(NC(=S)Nc4cccc(F)c4)cc3)ccc2C1=O [Example 259, (S)-2-(5-(4-(3-(3-Fluorophenyl)thioureido)phenyl)-1-oxoisoindolin-2-yl)-3-methyl butanoic acid] |
| 10 to 50 | CC(C)[C@@H](C(=O)O)N1Cc2ccc(-c3ccc(NC(=O)c4cccc5ccccc45)cc3)cc2C1=O [Example 178, (S)-2-(6-(4-(1-Naphthamido)phenyl)-1-oxoisoindolin-2-yl)-3-methylbutanoic acid] |
| > 50 | CC(C)[C@@H](C(=O)O)N1Cc2ccc(-c3ccc(NC(=O)c4ncc(-c5ccccc5)s4)cn3)cc2C1=O [Example 637, (S)-3-Methyl-2-(1-oxo-6-(5-(5-phenylthiazole-2-carboxamido)pyridin-2-yl)isoindolin-2-yl)butanoic acid] |
| 10 to 50 | COc1ccc(C(=O)Nc2ccc(-c3ccc4c(c3)C(=O)N([C@H](C(=O)O)C(C)C)C4)cc2)cc1OC [Example 142, (S)-2-(6-(4-(3,4-Dimethoxybenzamido)phenyl)-1-oxoisoindolin-2-yl)-3-methyl butanoic acid] |
| 10 to 50 | O=C(Nc1ccc(-c2ccc3c(c2)C(=O)N([C@H](C(=O)O)c2ccccc2)C3)cc1)Nc1cccc(C(F)(F)F)c1 [Example 346, (S)-2-(1-Oxo-6-(4-(3-(3-(trifluoromethyl)phenyl)ureido)phenyl)isoindolin-2-yl)-2-phenylacetic acid] |
| > 50 | CC(C)[C@@H](C(=O)O)N1Cc2ccc(-c3ccc(NC(=O)Nc4ccc5c(c4)CCC5)c(F)c3)cc2C1=O [Example 438, (S)-2-(6-(4-(3-(2,3-Dihydro-1H-inden-5-yl)ureido)-3-fluorophenyl)-1-oxoisoindolin-2-yl)-3-methylbutanoic acid] |
| > 50 | CCCCCCCCCCc1ccc(C(=O)Nc2ccc(-c3ccc4c(c3)C(=O)N([C@H](C(=O)O)C(C)C)C4)cc2)cc1 [Example 188, (S)-2-(6-(4-(4-Decylbenzamido)phenyl)-1-oxoisoindolin-2-yl)-3-methyl butanoic acid] |
| 10 to 50 | CC(C)[C@@H](C(=O)O)N1Cc2ccc(-c3ccc(NC(=O)NCc4ccccc4)cc3)cc2C1=O [Example 18, (S)-2-(6-(4-(3-Benzylureido)phenyl)-1-oxoisoindolin-2-yl)-3-methylbutanoic acid] |
| 10 to 50 | CC(C)[C@@H](C(=O)O)N1Cc2ccc(-c3ccc(NC(=O)c4c(F)cccc4F)cc3)cc2C1=O [Example 138, (S)-2-(6-(4-(2,6-Difluorobenzamido)phenyl)-1-oxoisoindolin-2-yl)-3-methyl butanoic acid] |
| 10 to 50 | CC(C)C[C@@H](C(=O)O)N1Cc2ccc(-c3ccc(NC(=O)Nc4cccc(C(F)(F)F)c4)cc3)cc2C1=O [Example 352, (S)-4-Methyl-2-(1-oxo-6-(4-(3-(3-(trifluoromethyl)phenyl)ureido)phenyl)isoindolin-2-yl)pentanoic acid] |
| 10 to 50 | CC(C)[C@@H](C(=O)O)N1Cc2cc(-c3ccc(NC(=O)c4ccccc4)cc3)ccc2C1=O [Example 305, (S)-2-(5-(4-Benzamidophenyl)-1-oxoisoindolin-2-yl)-3-methylbutanoic acid] |
